Experimental data reported in PubChem BioAssay AID1963867 (Molecular Pharmacology Branch, DTP, NCI, 2024).

Tested on: KRAS-mutant PDC tumor spheroid with HUVEC/MSC, viability
Assay: Anticancer human tumor 327498-153-R-J2-PDC patient-derived uterine carcinosarcoma cell line growth inhibition [KRAS2]
Settings: for IC50: curve of first compound; for viability, T/C: stronger effect = lower value
Method in brief: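 KRAS-mutant tumor cells were grown as spheroids with HUVEC endothelial cells and human MSCs as stroma. Targeted agents were tested alone and with KRAS pathway inhibitors. Doses started at or near clinical Cmax, or 10 microM, descending half-log.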

[1] = second compound 0.1 µM, first compound 0.01 µM
[2] = second compound 0.1 µM, first compound 0.0316 µM
[3] = second compound 0.1 µM, first compound 0.1 µM
[4] = second compound 0.1 µM, first compound 0.316 µM
[5] = second compound 0.1 µM, first compound 1 µM
[6] = second compound 0.1 µM, first compound 3.16 µM
[7] = second compound 0.316 µM, first compound 0.01 µM
[8] = second compound 0.316 µM, first compound 0.0316 µM
[9] = second compound 0.316 µM, first compound 0.1 µM
[10] = second compound 0.316 µM, first compound 0.316 µM
[11] = second compound 0.316 µM, first compound 1 µM
[12] = second compound 0.316 µM, first compound 3.16 µM
[13] = second compound 1 µM, first compound 0.01 µM
[14] = second compound 1 µM, first compound 0.0316 µM
[15] = second compound 1 µM, first compound 0.1 µM
[16] = second compound 1 µM, first compound 0.316 µM
[17] = second compound 1 µM, first compound 1 µM
[18] = second compound 1 µM, first compound 3.16 µM
[19] = second compound 3.16 µM, first compound 0.01 µM
[20] = second compound 3.16 µM, first compound 0.0316 µM
[21] = second compound 3.16 µM, first compound 0.1 µM
[22] = second compound 3.16 µM, first compound 0.316 µM
[23] = second compound 3.16 µM, first compound 1 µM
[24] = second compound 3.16 µM, first compound 3.16 µM
[25] = second compound 10 µM, first compound 0.01 µM
[26] = second compound 10 µM, first compound 0.0316 µM
[27] = second compound 10 µM, first compound 0.1 µM
[28] = second compound 10 µM, first compound 0.316 µM
[29] = second compound 10 µM, first compound 1 µM
[30] = second compound 10 µM, first compound 3.16 µM
[31] = second compound 0.1 µM, first compound 10 µM
[32] = second compound 0.316 µM, first compound 10 µM
[33] = second compound 1 µM, first compound 10 µM
[34] = second compound 3.16 µM, first compound 10 µM
[35] = second compound 10 µM, first compound 10 µM
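Note: spheroids exposed to agents for seven days before reading.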
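Throughout, for viability, T/C: 100% = DMSO vehicle wells so lower means fewer viable cells.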

SMILES | IC50 (second compound 0.1 µM) | IC50 (second compound 0.316 µM) | IC50 (second compound 1 µM) | IC50 (second compound 3.16 µM) | IC50 (second compound 10 µM) | viability, T/C [2] | viability, T/C [3] | viability, T/C [4] | viability, T/C [5] | viability, T/C [6] | viability, T/C [8] | viability, T/C [9] | viability, T/C [10] | viability, T/C [11] | viability, T/C [14] | viability, T/C [15] | viability, T/C [20] | viability, T/C [21] | viability, T/C [26] | viability, T/C [27] | also measured
CC1COCCN1c1cc(-c2ccnn2C)c2ccnc(-c3ccn[nH]3)c2n1 (stereo not given) + CC1OCC2(CCN(c3cnc(Sc4ccnc(N)c4Cl)c(N)n3)CC2)C1N | 21 nM | < 10 nM | < 10 nM | < 10 nM | < 10 nM | 39% | 8.18% | 6.79% | 8.72% | 6.58% | 21.5% | 8.27% | 5.01% | 7.64% | 14.8% | 7.95% | 12.1% | 8.55% | 13.4% | 7.85% | viability, T/C [1]: 70%; viability, T/C [7]: 37.1%; viability, T/C [12]: 4.81%; viability, T/C [13]: 31.1%; viability, T/C [16]: 4.88%; viability, T/C [17]: 4.72%; viability, T/C [18]: 4.24%; viability, T/C [19]: 23.2%; viability, T/C [22]: 5.44%; viability, T/C [23]: 5.2%; viability, T/C [24]: 3.81%; viability, T/C [25]: 19.6%; viability, T/C [28]: 6.38%; viability, T/C [29]: 5.34%; viability, T/C [30]: 3.63%
CCNC(=O)CC1N=C(c2ccc(Cl)cc2)c2cc(OC)ccc2-n2c(C)nnc21 (stereo not given) + CC1OCC2(CCN(c3cnc(Sc4ccnc(N)c4Cl)c(N)n3)CC2)C1N | 346 nM | 102 nM | < 31.6 nM | < 31.6 nM | < 31.6 nM | 64.3% | 68% | 49.8% | 37.8% | 38.8% | 51.8% | 51.5% | 37.9% | 27.9% | 42% | 35.4% | 31.3% | 26.1% | 20.1% | 20.7% | viability, T/C [31]: 27.5%; viability, T/C [12]: 26.2%; viability, T/C [32]: 22.4%; viability, T/C [16]: 31.7%; viability, T/C [17]: 18.3%; viability, T/C [18]: 17.8%; viability, T/C [33]: 16.8%; viability, T/C [22]: 20.4%; viability, T/C [23]: 16.9%; viability, T/C [24]: 13.6%; viability, T/C [34]: 11.8%; viability, T/C [28]: 18.2%; viability, T/C [29]: 13.9%; viability, T/C [30]: 12%; viability, T/C [35]: 10.9%
Cn1nccc1Nc1nccc(-c2cc3c(s2)C(C)(C)N(CCN2CCOCC2)C3=O)n1 + CC1OCC2(CCN(c3cnc(Sc4ccnc(N)c4Cl)c(N)n3)CC2)C1N | 644 nM | 61.1 nM | < 31.6 nM | < 31.6 nM | < 31.6 nM | 74.2% | 60.7% | 59.1% | 45.6% | 39.1% | 53.4% | 47% | 43.2% | 40.4% | 37.8% | 39.9% | 30.3% | 29.7% | 23.3% | 22.2% | viability, T/C [31]: 36.5%; viability, T/C [12]: 38.1%; viability, T/C [32]: 27.6%; viability, T/C [16]: 32.1%; viability, T/C [17]: 30.8%; viability, T/C [18]: 28.6%; viability, T/C [33]: 26.4%; viability, T/C [22]: 25.3%; viability, T/C [23]: 22.2%; viability, T/C [24]: 21.9%; viability, T/C [34]: 19.9%; viability, T/C [28]: 16.9%; viability, T/C [29]: 15.8%; viability, T/C [30]: 17.1%; viability, T/C [35]: 15.9%
CC(=O)OC12COC1CC(O)C1(C)C(=O)C(O)C3=C(C)C(OC(=O)C(O)C(NC(=O)OC(C)(C)C)c4ccccc4)CC(O)(C(OC(=O)c4ccccc4)C21)C3(C)C (stereo not given) + CNCc1ccccc1-c1csc(C(C)Nc2nc(C)nc3cc(OC)c(OC)cc23)c1 | < 10 nM | < 10 nM | < 10 nM | < 10 nM | < 10 nM | 5.57% | 5.61% | 7.57% | 8.63% | 13.1% | 5.76% | 8.79% | 6.37% | 9.11% | 6.01% | 6.6% | 0.04% | 0.03% | 0.42% | 2.08% | viability, T/C [1]: 7.46%; viability, T/C [7]: 7.41%; viability, T/C [12]: 10.8%; viability, T/C [13]: 9.89%; viability, T/C [16]: 7.2%; viability, T/C [17]: 11%; viability, T/C [18]: 10.6%; viability, T/C [19]: 8.09%; viability, T/C [22]: 0.04%; viability, T/C [23]: 0.48%; viability, T/C [24]: 10.4%; viability, T/C [25]: 0.78%; viability, T/C [28]: 0.12%; viability, T/C [29]: 10.2%; viability, T/C [30]: 0.25%
CN(C)C/C=C/C(=O)Nc1cc2c(Nc3ccc(F)c(Cl)c3)ncnc2cc1O[C@H]1CCOC1 + CNCc1ccccc1-c1csc(C(C)Nc2nc(C)nc3cc(OC)c(OC)cc23)c1 | > 100 nM | > 100 nM | > 100 nM | 1.72 nM | < 0.316 nM | 71.5% | 77.4% | – | – | – | 65.8% | 64% | – | – | 58.2% | 65.7% | 22.6% | 21.1% | 1.73% | 0.36% | viability, T/C (second compound 0.1 µM, first compound 0.000316 µM): 87.9%; viability, T/C (second compound 0.1 µM, first compound 0.001 µM): 79.1%; viability, T/C (second compound 0.1 µM, first compound 0.00316 µM): 79.7%; viability, T/C [1]: 81%; viability, T/C (second compound 0.316 µM, first compound 0.000316 µM): 78.9%; viability, T/C (second compound 0.316 µM, first compound 0.001 µM): 67.8%; viability, T/C (second compound 0.316 µM, first compound 0.00316 µM): 73.9%; viability, T/C [7]: 67.2%; viability, T/C (second compound 1 µM, first compound 0.000316 µM): 76.6%; viability, T/C (second compound 1 µM, first compound 0.001 µM): 67.9%; viability, T/C (second compound 1 µM, first compound 0.00316 µM): 64%; viability, T/C [13]: 73.4%; viability, T/C (second compound 3.16 µM, first compound 0.000316 µM): 62.1%; viability, T/C (second compound 3.16 µM, first compound 0.001 µM): 51.1%; viability, T/C (second compound 3.16 µM, first compound 0.00316 µM): 42.6%; viability, T/C [19]: 1.18%; viability, T/C (second compound 10 µM, first compound 0.000316 µM): 0.49%; viability, T/C (second compound 10 µM, first compound 0.001 µM): 0.76%; viability, T/C (second compound 10 µM, first compound 0.00316 µM): 0.34%; viability, T/C [25]: 0.27%
O=C(c1cc(Cc2n[nH]c(=O)c3ccccc23)ccc1F)N1CCN(C(=O)C2CC2)CC1 + CNCc1ccccc1-c1csc(C(C)Nc2nc(C)nc3cc(OC)c(OC)cc23)c1 | 2060 nM | 1810 nM | 1750 nM | 411 nM | < 31.6 nM | 83.4% | 80.3% | 82.8% | 73.6% | 36.1% | 86.6% | 87.4% | 76.7% | 69.5% | 90.8% | 81.8% | 57.7% | 67.8% | 2.32% | 0.2% | viability, T/C [31]: 19.2%; viability, T/C [12]: 32.4%; viability, T/C [32]: 19.1%; viability, T/C [16]: 81.3%; viability, T/C [17]: 66.3%; viability, T/C [18]: 33.2%; viability, T/C [33]: 19.1%; viability, T/C [22]: 62%; viability, T/C [23]: 0.7%; viability, T/C [24]: 25.9%; viability, T/C [34]: 0.17%; viability, T/C [28]: 1.62%; viability, T/C [29]: 0.19%; viability, T/C [30]: 0.15%; viability, T/C [35]: 1.22%
